Source: US20160310581A1, “ADAM10 INHIBITION TO TREAT FRAGILE X SYNDROME” (VIB VZW, priority 2013, published 2016)
Entries after “also recorded” stand apart in the source; their conditions may differ.

Columns and labels:
[1] = system: group I metabotropic glutamate receptors (mGluR); conditions: DHPG 100 μM, 5 min
Protocol: Neuronal culture preparation and stimulation. Mouse primary cortical neurons (E15) were prepared as described (Ferrari et al., 2007). Neurons were treated with the mGluRI agonist DHPG (100 uM) for 5 min as described in Napoli et al., 2008.
Immunoprecipitation and RT-PCR. Mouse brains were lysed and the supernatant was used for the IP according to standardized protocol (Napoli et al., 2008). FMRP antibody or purified rabbit IgGs were incubated with the Protein A Sepharose beads and with brain extract or cells for 1 hr at 4° C. After incubation with the extracts RNA was extracted (Phenol/Chloroform) and precipitated in 2.5 v ethanol. First-strand synthesis was achieved using p(dN)6 and 100 U of Superscript III (Invitrogen) and PCR was performed with GoTaq (Promega), according to the manufacturer's instructions. We used specific oligonucleotides to amplify αCaMKII, App, Adam10, Adam9, Adam17, Cyp46, BC200, D2DR. When RTqPCR was used to quantify immunoprecipitated mRNA, the relative mRNA level in the immunoprecipitation samples was calculated as follows: 2^−[DCp(Ip)−DCp(IgG)]=2^−DDCp, where DCp equals Cp(IP or IgG)-Cp(Input).
Western Blot. Standard methodologies were used. 5-20 μg of total lysate or synaptoneurosomes were separated by SDS-PAGE electrophoresis and blotted on a PVDF membrane (Millipore). […] Further quantification was performed upon Coomassie staining of the membranes.

mGluR-dependent LTD = assay: DHPG-induced mGluR-LTD, fEPSP recording in hippocampal slices; set-up: species or system mouse; conditions: for LTD of fEPSPs, % of baseline: 240 min; for effect on enhanced mGluR-LTD: Fmr1 KO mice, slices 24 h after peptide treatment; for effect on the ability of DHPG to elicit LTD: WT slices/mice, compared with untreated control
Protocol: Electrophysiology. Animals were euthanized by decapitation, and the right hippocampus was rapidly dissected out into ice-cold (4° C.) artificial cerebrospinal fluid (ACSF) and saturated with carbogen (95% O2/5% CO2). The ACSF consisted of (in mM): 124 NaCl, 4.9 KCl, 24.6 NaHCO3, 1.20 KH2PO4, 2.0 CaCl2, 2.0 MgCl2, and 10.0 glucose, pH 7.4. Transverse slices (400 μm thick) were prepared from the dorsal area of the hippocampus with a tissue chopper and were placed into a submerged-type chamber; samples were kept at 33° C. and continuously perfused with carbogen saturated ACSF at a flow-rate of 2.2 ml/min. After 90 min of incubation, one slice was arbitrarily selected, and a tungsten electrode was placed in the CA1 stratum radiatum. Field excitatory postsynaptic potentials (fEPSPs) were recorded by placing a glass electrode (filled with ACSF, 3-7 MΩ) in the stratum radiatum opposite the stimulating electrode. The time course of the field EPSP was measured as the descending slope function for all sets of experiments. After input/output curves had been established, the stimulation strength was adjusted to elicit a fEPSP-slope of 35% of the maximum and kept constant throughout the experiment. During the baseline recording, 3 single stimuli (0.1 ms pulse width; 10 s interval) were measured every 5 min. The mGluR mediated LTD was induced by a bath application of 30 μM S-DHPG [(S)-3-5-dihydroxy-phenyl glycine; Abcam Chemicals Ltd., Bristol UK] for 15 min (Tambuyzer et al., 2013). During the chemical induction, evoked responses were monitored at 1, 4, 7 and 10 min and then every 5 min until the end of the experiment. All studies were conducted with the experimenter blinded to the treatment regime.

ADAM10 [2] = assay: sAPP release into medium of cultured cortical neurons (western blot); format: cell-based, mouse; conditions: Fmr1 KO cortical neurons
Protocol: Neuronal culture preparation and stimulation.
(§1) Western Blot. Standard methodologies were used. […] Membranes were incubated using specific antibodies. […] 5 (Molecular Dynamics).
Peptide treatment. […] P20 mice were given intraperitoneal injections of the two peptides (3 nmol/g) and fractionation performed after 24 hrs. Experiment was conducted on WT and KO littermate mice.

[3] = Marcello et al., 2007; cited from earlier work
[4] = system: dendritic spines of Fmr1 KO mice; assay: Morphological analysis of dendritic spines in vivo (diolistic DiI labelling); set-up: species or system mouse; conditions: 3 nmol/g i.p., 24 h, hippocampal sections, vs TAT-Ala Fmr1 KO mice
Protocol: Morphological analysis. Wild type and Fmr1 KO mice received an intraperitoneal injection with either TAT-Pro or TAT-Ala peptides (3 nmol/g; 14-d-old mice; 8 mice/group). After 24 h, the mice were deeply anaesthetised with an intraperitoneal injection 0.54 mg/g Avertin and then perfused with ice-cold 4% PFA in 0.1M phosphate buffer (PB; 61.2 mM Na2HPO4, 23.2 mM NaH2PO4.H20, pH 7.4). Brains were removed and sectioned in 200 μm thick transverse slices containing both cortex and hippocampus using a Vibratome (Vibratome). Slices were equilibrated in PBS at 4° C. before applying the Dil-coated particles using a diolistic gene-gun system (Bio-Rad laboratories, Italy). 15 min after application, slices were fixed with 4% PFA in 0.1M PB (2 hours) and kept in PB O/N before mounting. Images of Dil-labelled neurons in the hippocampus and cortex were acquired using Zeiss Confocal LSM510 Meta system with 63× objective and a sequential acquisition setting at 1024×1024 pixels resolution. For each image three to four 0.5 μm sections were acquired and z-projection was obtained. Morphological analysis of dendritic spines was performed using freely available ImageJ 1.42q software (Wayne Rasband National Institutes of Health, USA), and spine length, head width and neck width were measured.

Fmr1 KO mice = assay: Behavioral tests: open field (hyperactivity) and T-maze (working memory); format: in vivo, mouse; conditions: P24-25
Protocol: Behavioral tests. All behavioral experiments were performed with P24-25 male mice and blind to the genotype and treatment. We used a minimum of 9 animals per genotype and treatment. Mice were habituated to their new environment for 3 days and tests were conducted during the light phase of their activity cycle. Health and weight of the mice were recorded routinely during the whole period of testing.
Open-field exploration was tested in 50 cm×50 cm×30 cm (w×l×h) square arena illuminated by indirect light. Animals were dark adapted for 30 min and placed in the arena for 10 min each. Movements of the mice in the arena were video-tracked for 10 min and the images were transmitted to a PC equipped with ANY-maze™ Video Tracking System software (Stoelting Co., IL, USA).
Spatial working memory was evaluated in a delayed nonmatching alternation test using an elevated open T-shaped maze made of dark grey plastic. The maze was composed of three 50 cm×7 cm×4 cm (l×w×h) arms elevated 25 cm above the ground. Behavior was registered with a PC-interfaced camera and analyzed with ANY-maze™ Video Tracking System software (Stoelting Co., IL, USA). The mouse was subjected to two trials. During the exploration trial, one of the horizontal T-maze arms (novel arm) was blocked with a 10 cm high door and the mouse was placed into the start arm to explore freely the start and familiar arms for 5 min. […]

ADAM10/SAP97 interaction = ADAM10/SAP97 interaction (Mus musculus, UniProt Q811D0); conditions: Marcello et al., 2007; cited from earlier work
ADAM10/SAP97 interaction, sequence (Q811D0 whole entry): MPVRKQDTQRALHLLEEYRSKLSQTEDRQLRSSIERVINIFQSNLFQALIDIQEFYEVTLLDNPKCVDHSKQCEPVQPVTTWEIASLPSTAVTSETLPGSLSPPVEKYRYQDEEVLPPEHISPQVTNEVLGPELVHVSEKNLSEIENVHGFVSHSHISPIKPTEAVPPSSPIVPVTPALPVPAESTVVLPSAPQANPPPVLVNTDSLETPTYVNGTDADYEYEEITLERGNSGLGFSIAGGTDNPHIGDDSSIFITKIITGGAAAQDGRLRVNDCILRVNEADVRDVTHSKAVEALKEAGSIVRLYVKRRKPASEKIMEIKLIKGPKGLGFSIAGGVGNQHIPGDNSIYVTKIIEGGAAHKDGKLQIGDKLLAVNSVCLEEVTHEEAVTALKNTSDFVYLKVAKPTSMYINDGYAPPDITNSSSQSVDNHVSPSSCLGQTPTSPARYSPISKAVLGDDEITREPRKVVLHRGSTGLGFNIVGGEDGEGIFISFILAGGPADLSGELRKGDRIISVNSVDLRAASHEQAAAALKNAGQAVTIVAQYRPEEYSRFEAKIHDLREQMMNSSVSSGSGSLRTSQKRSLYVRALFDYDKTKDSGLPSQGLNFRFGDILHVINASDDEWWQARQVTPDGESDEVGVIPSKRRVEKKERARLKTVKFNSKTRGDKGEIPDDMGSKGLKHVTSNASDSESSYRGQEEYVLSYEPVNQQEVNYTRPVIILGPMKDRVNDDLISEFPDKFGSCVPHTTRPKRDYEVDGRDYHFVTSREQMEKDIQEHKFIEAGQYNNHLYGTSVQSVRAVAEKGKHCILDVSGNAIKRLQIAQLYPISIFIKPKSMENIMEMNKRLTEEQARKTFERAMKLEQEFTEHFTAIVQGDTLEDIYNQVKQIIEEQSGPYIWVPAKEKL

ADAM10 [5] = assay: sAPPα levels in brain after intraperitoneal peptide injection (brain fractionation, western blot); format: in vivo, mouse; conditions: Fmr1 KO mice; single i.p. injection 3 nmol/g, 24 h; vs TAT-Ala treated Fmr1 KO mice
Protocol: as §1
Brain fractionation. Half brain was homogenized in STE buffer (Sucrose 0.32 M, 5 mMTris HCl pH 7.4, 1 mM EDTA, PSMF 0.1 mM, 10 μl ml^−1 Protease inhibitor cocktail (PIC, Sigma). The homogenized tissue was centrifuged at 800 g for 10 min to pull down nuclei. The resulting supernatant was then centrifuged at 55000 rpm 1 h. The supernatant (S1) was collected while the pellet was dissolved in 1% Triton STE Buffer and centrifuged at 55.000 rpm (TLX) for 1 hr. The supernatant is collected (S2) and the final pellet homogenized in SDS Laemmli buffer 1× (Triton-insoluble fraction, P1).
Peptide treatment. Specific (TAT-PRO) or control (TAT-ALA) peptides (10 μM) were added to the media of DIV14 WT and KO cultured neuron and the release of sAPP was monitored by WB after 24 h. P20 mice were given intraperitoneal injections of the two peptides (3 nmol/g) and fractionation performed after 24 hrs. Experiment was conducted on WT and KO littermate mice.

N[C@H](C(=O)O)c1cc(O)cc(O)c1 [DHPG, (S)-3-5-dihydroxy-phenyl glycine]
expression of APP ([1]; primary cortical neurons DIV14): induced an increase
amount of App mRNA associated with FMRP ([1]; primary cortical neurons): reduced by threefold
LTD of fEPSPs, % of baseline (mGluR-dependent LTD; Fmr1 KO mice slices, DHPG 30 μM, 15 min): 28±3%
LTD of fEPSPs, % of baseline (mGluR-dependent LTD; WT slices, DHPG bath application 30 μM, 15 min): 53±9%

TAT-Pro: Cell-permeable anti-ADAM10 peptide YGRKKRRQRRRPKLPPPKPLPGTLKRRRPPQP (SEQ ID NO:1): 11 aa Tat transporter sequence linked to 21 aa ADAM10 proline rich domains (Tat-Pro ADAM10 709-729 peptide)
sAPP release in the medium (ADAM10 [2]; peptide 10 μM, 1 h, compared to TAT-Ala exposed neurons): significantly decreases sAPP release; also recorded: reduces sAPP release
blood-brain barrier crossing [3]: crosses the blood-brain barrier
spines density [4]: decreases spines density
spines length [4]: significantly increases
spines width [4]: significantly increases
effect on enhanced mGluR-LTD (mGluR-dependent LTD; DHPG 30 μM, 15 min, listed as Tat-Pro): prevents mGluR-LTD
effect on enhanced mGluR-LTD (mGluR-dependent LTD; DHPG 30 μM, 15 min, listed as Tat-Pro ADAM10^709-729): sufficient to prevent the enhanced LTD
fEPSP after DHPG-induced LTD (% of baseline) (mGluR-dependent LTD; WT slices, 24 h after peptide treatment, DHPG 30 μM, 15 min): 65±8%
effect on the ability of DHPG to elicit LTD (mGluR-dependent LTD; listed as Tat-Pro): does not impact LTD
effect on the ability of DHPG to elicit LTD (mGluR-dependent LTD; listed as Tat-Pro ADAM10^709-729): no detectable effect
behavioural deficits (open field hyperactivity, T-maze working memory) (Fmr1 KO mice): partially ameliorates the behavioural deficits
ADAM10/SAP97 interaction (ADAM10/SAP97 interaction): interferes with ADAM10/SAP97 interaction
sAPPα levels in brain (ADAM10 [5]): significant reduction of sAPPα levels

TIMP-1: tissue inhibitor of metalloproteinase-1, an inhibitor of metalloproteinases
sAPP release in the medium (ADAM10 [2]; TIMP-1 15 nM for 4 h): significantly reduces sAPP release
